Source: the NIST ThermoML archive (doi:10.1021/je900596d)
Numbers after ± are expanded uncertainties.

Details: Liquid; for mass density: Vibrating tube method; for vapor or sublimation pressure: Closed cell (Static) method

## FC(F)=C(F)C(F)(F)F [hexafluoropropene]
323.37 K, 3190.6 kPa
  mass density: 1208.65 ± 1.2 kg/m3
323.37 K, 3233.2 kPa
  mass density: 1209.26 ± 1.2 kg/m3
323.37 K, 3274 kPa
  mass density: 1209.98 ± 1.2 kg/m3
323.37 K, 3319.3 kPa
  mass density: 1210.67 ± 1.2 kg/m3
323.37 K, 3363.9 kPa
  mass density: 1211.37 ± 1.2 kg/m3
323.37 K, 3409 kPa
  mass density: 1212.2 ± 1.2 kg/m3
323.37 K, 3453.1 kPa
  mass density: 1212.75 ± 1.2 kg/m3
323.37 K, 3494.3 kPa
  mass density: 1213.56 ± 1.2 kg/m3
323.37 K, 3536.1 kPa
  mass density: 1214.13 ± 1.2 kg/m3
323.37 K, 3576.1 kPa
  mass density: 1214.83 ± 1.3 kg/m3
323.37 K, 3614.3 kPa
  mass density: 1215.37 ± 1.2 kg/m3
323.37 K, 3655.5 kPa
  mass density: 1215.99 ± 1.3 kg/m3
323.37 K, 3696.8 kPa
  mass density: 1216.59 ± 1.2 kg/m3
323.37 K, 3734.8 kPa
  mass density: 1217.22 ± 1.2 kg/m3
323.37 K, 3774.4 kPa
  mass density: 1217.9 ± 1.2 kg/m3
323.37 K, 3814.2 kPa
  mass density: 1218.51 ± 1.3 kg/m3
323.37 K, 3853.1 kPa
  mass density: 1219.11 ± 1.2 kg/m3
323.37 K, 3890.4 kPa
  mass density: 1219.71 ± 1.2 kg/m3
323.37 K, 3929.4 kPa
  mass density: 1220.24 ± 1.3 kg/m3
323.37 K, 3968.3 kPa
  mass density: 1220.84 ± 1.3 kg/m3
323.37 K, 4008.7 kPa
  mass density: 1221.41 ± 1.3 kg/m3
323.37 K, 4049.2 kPa
  mass density: 1222.01 ± 1.2 kg/m3
323.37 K, 4086.5 kPa
  mass density: 1222.57 ± 1.3 kg/m3
323.37 K, 4125.9 kPa
  mass density: 1223.19 ± 1.3 kg/m3
323.37 K, 4203.9 kPa
  mass density: 1224.27 ± 1.2 kg/m3
323.37 K, 4242.8 kPa
  mass density: 1224.81 ± 1.3 kg/m3
323.37 K, 4283.2 kPa
  mass density: 1225.52 ± 1.3 kg/m3
323.37 K, 4323.7 kPa
  mass density: 1226 ± 1.3 kg/m3
323.37 K, 4365 kPa
  mass density: 1226.67 ± 1.3 kg/m3
323.37 K, 4405.1 kPa
  mass density: 1227.17 ± 1.3 kg/m3
323.37 K, 4444.7 kPa
  mass density: 1227.66 ± 1.2 kg/m3
323.37 K, 4485 kPa
  mass density: 1228.31 ± 1.3 kg/m3
323.37 K, 4510.8 kPa
  mass density: 1228.65 ± 1.3 kg/m3
323.37 K, 4561.5 kPa
  mass density: 1229.42 ± 1.3 kg/m3
323.37 K, 4618.8 kPa
  mass density: 1230.22 ± 1.3 kg/m3
323.37 K, 4671.5 kPa
  mass density: 1230.85 ± 1.3 kg/m3
323.37 K, 4727.5 kPa
  mass density: 1231.69 ± 1.3 kg/m3
323.37 K, 4782 kPa
  mass density: 1232.28 ± 1.3 kg/m3
323.37 K, 4834 kPa
  mass density: 1233.09 ± 1.3 kg/m3
323.37 K, 4887.1 kPa
  mass density: 1233.93 ± 1.3 kg/m3
323.37 K, 4938.4 kPa
  mass density: 1234.66 ± 1.3 kg/m3
323.37 K, 4991 kPa
  mass density: 1235.13 ± 1.3 kg/m3
323.37 K, 5040.4 kPa
  mass density: 1235.89 ± 1.3 kg/m3
323.37 K, 5097.9 kPa
  mass density: 1236.56 ± 1.3 kg/m3
323.37 K, 5155.7 kPa
  mass density: 1237.37 ± 1.3 kg/m3
323.37 K, 5211.3 kPa
  mass density: 1238.02 ± 1.3 kg/m3
323.37 K, 5267.7 kPa
  mass density: 1238.8 ± 1.3 kg/m3
323.37 K, 5326.8 kPa
  mass density: 1239.64 ± 1.3 kg/m3
323.37 K, 5386 kPa
  mass density: 1240.28 ± 1.3 kg/m3
323.37 K, 5440.9 kPa
  mass density: 1241.12 ± 1.3 kg/m3
323.37 K, 5498.8 kPa
  mass density: 1241.79 ± 1.3 kg/m3
323.37 K, 5518.2 kPa
  mass density: 1242.1 ± 1.3 kg/m3
323.37 K, 5575.5 kPa
  mass density: 1242.7 ± 1.3 kg/m3
323.37 K, 5631.7 kPa
  mass density: 1243.39 ± 1.3 kg/m3
323.37 K, 5693 kPa
  mass density: 1244.16 ± 1.3 kg/m3
323.37 K, 5751.8 kPa
  mass density: 1244.98 ± 1.3 kg/m3
323.37 K, 5808.1 kPa
  mass density: 1245.67 ± 1.3 kg/m3
323.37 K, 5864.8 kPa
  mass density: 1246.37 ± 1.3 kg/m3
323.37 K, 5921.9 kPa
  mass density: 1247.09 ± 1.3 kg/m3
323.37 K, 5977.9 kPa
  mass density: 1247.78 ± 1.3 kg/m3
323.37 K, 6035 kPa
  mass density: 1248.49 ± 1.3 kg/m3
323.37 K, 6091.4 kPa
  mass density: 1249 ± 1.3 kg/m3
323.37 K, 6150.7 kPa
  mass density: 1249.77 ± 1.3 kg/m3
323.37 K, 6208.1 kPa
  mass density: 1250.43 ± 1.3 kg/m3
323.37 K, 6265.4 kPa
  mass density: 1251.23 ± 1.3 kg/m3
323.37 K, 6323.2 kPa
  mass density: 1251.69 ± 1.3 kg/m3
323.37 K, 6380.6 kPa
  mass density: 1252.41 ± 1.3 kg/m3
323.37 K, 6438.3 kPa
  mass density: 1253.13 ± 1.3 kg/m3
323.37 K, 6494.6 kPa
  mass density: 1253.91 ± 1.3 kg/m3
323.37 K, 6551.8 kPa
  mass density: 1254.4 ± 1.3 kg/m3
323.37 K, 6606.9 kPa
  mass density: 1255.07 ± 1.3 kg/m3
323.37 K, 6663.3 kPa
  mass density: 1255.73 ± 1.3 kg/m3
323.37 K, 6721.4 kPa
  mass density: 1256.27 ± 1.3 kg/m3
323.37 K, 6837.9 kPa
  mass density: 1257.77 ± 1.3 kg/m3
323.37 K, 6894.2 kPa
  mass density: 1258.24 ± 1.3 kg/m3
323.37 K, 6952.1 kPa
  mass density: 1259 ± 1.3 kg/m3
323.37 K, 7008.2 kPa
  mass density: 1259.55 ± 1.3 kg/m3
323.37 K, 7067.2 kPa
  mass density: 1260.31 ± 1.3 kg/m3
323.37 K, 7126.4 kPa
  mass density: 1260.79 ± 1.3 kg/m3
323.37 K, 7183.6 kPa
  mass density: 1261.47 ± 1.3 kg/m3
323.37 K, 7241.8 kPa
  mass density: 1262.13 ± 1.3 kg/m3
323.37 K, 7299.5 kPa
  mass density: 1262.75 ± 1.3 kg/m3
323.37 K, 7358.7 kPa
  mass density: 1263.39 ± 1.3 kg/m3
323.37 K, 7415.2 kPa
  mass density: 1263.98 ± 1.3 kg/m3
323.37 K, 7474.7 kPa
  mass density: 1264.58 ± 1.3 kg/m3
323.37 K, 7531.4 kPa
  mass density: 1265.19 ± 1.3 kg/m3
323.37 K, 7588.8 kPa
  mass density: 1265.89 ± 1.3 kg/m3
323.37 K, 7648.3 kPa
  mass density: 1266.42 ± 1.3 kg/m3
323.37 K, 7707.1 kPa
  mass density: 1267.12 ± 1.3 kg/m3
323.37 K, 7764.7 kPa
  mass density: 1267.63 ± 1.3 kg/m3
323.37 K, 7823.9 kPa
  mass density: 1268.27 ± 1.3 kg/m3
323.37 K, 7882.7 kPa
  mass density: 1268.85 ± 1.3 kg/m3
323.37 K, 7940.4 kPa
  mass density: 1269.67 ± 1.3 kg/m3
323.37 K, 7995.5 kPa
  mass density: 1270.08 ± 1.3 kg/m3
323.37 K, 8048 kPa
  mass density: 1270.66 ± 1.3 kg/m3
323.37 K, 8125.8 kPa
  mass density: 1271.24 ± 1.3 kg/m3
323.37 K, 8203.2 kPa
  mass density: 1272.24 ± 1.3 kg/m3
323.37 K, 8277.9 kPa
  mass density: 1272.98 ± 1.3 kg/m3
323.37 K, 8354.3 kPa
  mass density: 1273.75 ± 1.3 kg/m3
323.37 K, 8407.9 kPa
  mass density: 1274.11 ± 1.3 kg/m3
323.37 K, 8486.2 kPa
  mass density: 1275.02 ± 1.3 kg/m3
323.37 K, 8565.3 kPa
  mass density: 1275.71 ± 1.3 kg/m3
323.37 K, 8644.1 kPa
  mass density: 1276.5 ± 1.3 kg/m3
323.37 K, 8721.2 kPa
  mass density: 1277.38 ± 1.3 kg/m3
323.37 K, 8795.7 kPa
  mass density: 1278.02 ± 1.3 kg/m3
323.37 K, 8871.5 kPa
  mass density: 1278.77 ± 1.3 kg/m3
323.37 K, 8923.6 kPa
  mass density: 1279.19 ± 1.3 kg/m3
323.37 K, 9000 kPa
  mass density: 1279.98 ± 1.3 kg/m3
323.37 K, 9075.8 kPa
  mass density: 1280.67 ± 1.3 kg/m3
323.37 K, 9128 kPa
  mass density: 1281.22 ± 1.3 kg/m3
323.37 K, 9181 kPa
  mass density: 1281.6 ± 1.3 kg/m3
323.37 K, 9257 kPa
  mass density: 1282.4 ± 1.3 kg/m3
323.37 K, 9330.9 kPa
  mass density: 1283.02 ± 1.3 kg/m3
323.37 K, 9404.8 kPa
  mass density: 1283.76 ± 1.3 kg/m3
323.37 K, 9479.6 kPa
  mass density: 1284.46 ± 1.3 kg/m3
323.37 K, 9533 kPa
  mass density: 1284.99 ± 1.3 kg/m3
323.37 K, 9609.3 kPa
  mass density: 1285.65 ± 1.3 kg/m3
323.37 K, 9682.9 kPa
  mass density: 1286.27 ± 1.3 kg/m3
323.37 K, 9757.3 kPa
  mass density: 1287.03 ± 1.3 kg/m3
323.37 K, 9833.2 kPa
  mass density: 1287.72 ± 1.3 kg/m3
323.37 K, 9909.3 kPa
  mass density: 1288.32 ± 1.3 kg/m3
323.37 K, 9986.3 kPa
  mass density: 1289.02 ± 1.3 kg/m3
328.21 K
  vapor or sublimation pressure: 1595.1 ± 2.9 kPa
333.21 K
  vapor or sublimation pressure: 1791.4 ± 3.2 kPa
338.18 K
  vapor or sublimation pressure: 2007.9 ± 3.6 kPa
343.18 K, 2257.1 kPa
  mass density: 1022.11 ± 1.1 kg/m3
343.18 K, 2260.4 kPa
  mass density: 1022.55 ± 1.1 kg/m3
343.18 K, 2263.3 kPa
  mass density: 1022.75 ± 1.1 kg/m3
343.18 K, 2269.6 kPa
  mass density: 1023.31 ± 1.1 kg/m3
343.18 K, 2279.2 kPa
  mass density: 1024.07 ± 1.1 kg/m3
343.18 K, 2287.2 kPa
  mass density: 1024.5 ± 1.1 kg/m3
343.18 K, 2297 kPa
  mass density: 1025.46 ± 1.1 kg/m3
343.18 K, 2306 kPa
  mass density: 1025.93 ± 1.1 kg/m3
343.18 K, 2314 kPa
  mass density: 1026.5 ± 1.1 kg/m3
